In US20050215562A1, “Methods for treating protein aggregation disorders” (priority 2003, published 2005):

Legend:
[1] = molecular target: T1, NAC peptide (Homo sapiens, UniProt P37840); assay: Circular dichroism (CD) analysis of NAC peptide conformation after incubation with test compounds (fibrillogenesis assay); type: biochemical; design: key to CD Result (NAC conformation observed): Random Coil: signifies that the NAC in the sample was observed to have been maintained in its original random coil conformation indicating that the compound coincubated with NAC is active; signifies that the compound was not able to prevent the shift from random coil to β-sheet; β-sheet/β-turn: signifies that the compound was not able to prevent the shift from random coil to β-sheet; Transition: signifies that the NAC was observed to be in the process of converting from random coil to β-sheet indicating that the compound was able to slow down the conformational change and indicates activity; conditions: for CD Result (NAC conformation observed): 125 μL of 40 μM NAC peptide with 125 μL of 200 μM test compound, pH 7.4, 37° C., conformations over repeated trials; for Activity (CD): active if it prevents the transition to β-turn/β-sheet in 50% or more of the trials; for Activity: active trials / trials: number of CD trials in which transition to β-turn/β-sheet was prevented, over trials run
T1 construct: a 35 amino acid peptide corresponding to residues 61 to 95 of the α-synuclein protein; made in house; host or cells: chemical solid-phase peptide synthesis (Fmoc), not expressed
Protocol: 2 mM Solutions were prepared in TBSA buffer (Tris 0.02 M, NaCl 0.15 M, NaN3 0.005%, pH 7.4) and stored at 4° C. For the assays, compounds were diluted to the desired concentrations in TBSAE buffer (Tris 0.02 M, NaCl 0.15 M, NaN3 0.005%, EDTA 100 μM, pH 7.4) and combined with the NAC peptides.
Fibrillogenesis assays were employed to identify test compounds that inhibit NAC's ability to assemble into fibers. Following removal of HFIP by evaporation under N2 gas, 20 μM NAC peptide is incubated in the assay buffer (0.02M Tris, 0.15 M NaCl, 0.005% NaN3, 100 uM EDTA) at 37° C. in a Perkin-Elmer HTS 7000 plus microplate reader with shaking for 1 minute every twenty minutes. The presence of fibers can be monitored by three different methods.
The following assays were set up in clear polystyrene 96 well microplates by combining 125 μL of 40 μM NAC peptide with 125 μL of 200 μM test compound in 0.02M Tris, 0.15 M NaCl, 0.005% NaN3, […]. The microplates were sealed with a plastic sheet and incubated at 37° C. in a Perkin-Elmer HTS 7000 microplate reader with shaking for 1 minute, every 20 minutes. • Thioflavin T Analysis. To perform this assay 5 μM Thioflavin T is added to the NAC assembly conditions described above. The fluorescence is measured at 430 excitation/485 emission every twenty minutes with a Perkin-Elmer HTS microplate reader for the duration of the assay. […] This assay allows for the identification of compounds that can inhibit this increase in fluorescence upon incubation. • Turbidity Analysis. Alternatively, NAC peptide that has been incubated with test compounds in the appropriate assembly conditions can be analyzed by reading the absorbance at 405 nm to follow the turbidity of the solution which is also an indication of the formation of aggregates. • Circular Dichroism (CD) Analysis. […] This assay allows for the identification of compounds that can prevent NAC from adopting a β-sheet/β-turn conformation upon incubation. • At the appropriate time point, during the incubation, the test solutions were transferred to 0.1-cm path length quartz cuvettes and scanned by CD spectroscopy between 190 and 260 nm, with a resolution of 0.1 nm and a bandwidth of 1 nm using a Jasco J-715 spectropolarimeter at 37° C. […] At the time point at which CD scans are performed a 3 μl aliquot is removed from the sample, spotted onto a Formvar grid and then negatively stained with 4% uranyl acetate. The grids were examined for the presence of fibrils and amorphous aggregates using a JOEL 2000 transmission electron microscope at a 25,000 × magnification. This assay can be used to confirm the absence of fibers in the presence of compounds which inhibit NAC assembly by ThT and CD. The final results were obtained by averaging 10 complete sectors.
For compounds that have been tested multiple times, a compound is classified as active if it prevents the transition to β-turn/β-sheet in 50% or more of the trials.

[2] = molecular target: T1, NAC peptide; assay: Binding of compounds to NAC peptide by electrospray mass spectrometry; conditions: area of bound NAC-compound complex peaks divided by area of unbound NAC peaks; 5:1 compound:NAC, pH 7.4, 6.6% EtOH
Protocol: The ability of the compounds of the present invention to bind to NAC peptide in aqueous solution was evaluated. The binding ability correlates to the intensities of the peptide-compound complex peaks observed by the Electrospray Mass Spectrum. Millipore distilled deionized water was used to prepare all aqueous solutions. For pH determination a Beckman (Φ36 pH meter fitted with a Corning Semi-Micro Combination pH Electrode was employed.
The optimal cone voltage was determined to be 20V.
Mass spectrometry: Mass spectrometric analysis was performed using a Waters ZQ 4000 mass spectrometer equipped with a Waters 2795 sample manager. MassLynx 4.0 (earlier by MassLynx 3.5) was used for data processing and analysis. Test compounds were mixed with disaggregated peptides in aqueous media (6.6% EtOH) at a 5:1 ratio (20 μM NAC: 100 μM of test compound or 40 μM NAC : 200 μM of test compound). The pH of the mixture was adjusted to 7.4 (±0.2) using 0.1% NaOH (3-5 μL). Periodically, NAC peptide solution at 20 μM or 40 μM was also prepared in the same fashion and run as control. The spectra were obtained by introducing the solutions to the electrospray source by direct infusion using a syringe pump at a flow rate of 25 μl/min, and scanning from 100 to 2100 Da in the positive mode. The scan time was 0.9 sec per scan with an inter-scan delay of 0.1 sec and the run time was 5 min for each sample. All the mass spectra were sum of 300 scans. The desolvation and source temperature was 70° C. and the cone and capillary voltage were maintained at 20 V and 3.2 kV respectively.
The total area under the peaks for the bound NAC-compound complex divided by total area under the peaks for unbound NAC was determined for each compound tested.

Row | SMILES | CD Result (NAC conformation observed) [1] | Activity (CD) [1] | Activity: active trials / trials [1] | Binding Strength [2]
1 | O=S(=O)(O)CCCC[N+]12CCC(CC1)CC2 [compound 30] | Random Coil β-sheet/β- turn | Yes | 2/4 | 
2 | CC(CC[N+]12CCC(CC1)CC2)S(=O)(=O)O (stereo not drawn) [compound 29] | β-turn | No | 0/3 | 
3 | O=S(=O)(O)CCCN1CCN(Cc2ccccc2)CC1 [compound 12] | β-turn Transition | No | ⅓ | ++ (Moderate; when the total binding is between 120% and 70%)
4 | CC(C)CCNCC(O)CS(=O)(=O)O (stereo not drawn) [compound 33] | Random Coil β-sheet/β- turn | Yes | ½ | 
5 | O=C[C@H](Cc1ccccc1)NCCCS(=O)(=O)O [compound 36] | β-sheet | No | 0/1 | 
6 | NCCCCS(=O)(=O)O [compound 7] | β- turn/βsheet Random coil Transition | Yes | 2/4 | ++ (Moderate; when the total binding is between 120% and 70%)
7 | CCCCCCCCCCCCCCS(C)(C)CCCS(=O)(=O)O [compound 10] | Random Coil | Yes | 5/5 | + (Weak; when the total binding is between 70% and 30%)
8 | NCCOS(=O)(=O)O [compound 3] | β- turn/βsheet | No | 0/2 | − (None; when the total binding is between 30% and 0%)
9 | O=S(=O)(O)CCCCS(=O)(=O)O [compound 1] | Random Coil β-sheet | Yes | ½ | − (None; when the total binding is between 30% and 0%)
10 | CC(C)(C)NCCCS(C)(=O)=O [compound 19] | Random Coil β-turn | Yes | ½ | 
11 | O=S(=O)(O)CC(O)CNC1CCCCC1 (stereo not drawn) [compound 21] | β-sheet/β- turn Transition | No | ⅓ | 
12 | O=S(=O)(O)OCCCOS(=O)(=O)O [compound 2] | Random Coil TRansition | Yes | 2/2 | − (None; when the total binding is between 30% and 0%)
13 | O=C1NCCCC[C@@H]1NCCCS(=O)(=O)O [compound 18] | β-sheet/β- turn | No | 0/2 | 
14 | O=S(=O)(O)CC(O)CNC12C[C@H]3C[C@@H](C1)C[C@@H](C2)C3 (stereo partly drawn) [compound 24] | Random Coil | Yes | 2/2 | 
15 | O=C[C@@H](Cc1ccccc1)N(O)CCCS(=O)(=O)O [compound 37] | β-sheet Transition | Yes | ½ | 
16 | O=S(=O)(O)CCCNC(Cc1ccccc1)c1ccccc1 (stereo not drawn) [compound 22] | Transition β-turn | No | ⅔ | 
17 | O=S(=O)(O)CCC[N+]12CCC(CC1)CC2 [compound 32] | β-sheet/β- turn Random coil | No | ¼ | 
18 | CC(CCNC12C[C@H]3C[C@@H](C1)C[C@@H](C2)C3)S(=O)(=O)O (stereo partly drawn) [compound 23] | Random Coil β-sheet | Yes | ½ | 
19 | CC(C)(C)NCCCCS(=O)(=O)O [compound 28] | β-turn/β- sheet | No | 0/3 | 
20 | CC(C)(C)C1CCC(NCCCS(=O)(=O)O)CC1 (stereo not drawn) [compound 35] | β-turn | No | 0/2 | 
21 | O=S(=O)(O)CCCNCCc1c[nH]c2ccccc12 [compound 17] | β-turn Transition | No | ⅓ | 
22 | CCCCCCCCCCCCCCCCS(C)(C)CCCS(=O)(=O)O [compound 11] | Random Coil | Coil | 4/4 | ++ (Moderate; when the total binding is between 120% and 70%)
23 | O=S(=O)(O)CCCNC12C[C@H]3C[C@@H](C1)C[C@@H](C2)C3 [compound 26] | Transition β-turn | Yes | ½ | 
24 | NCCCCS(=O)(=O)O [compound 6] | β-turn transition | Yes | ½ | +++ (Strong; when the total binding is 120% and higher)
25 | NCCS(=O)(=O)O [compound 5] | β-sheet | No | 0/2 | + (Weak; when the total binding is between 70% and 30%)
26 | O=S(=O)(O)CC(O)CNC1C2CC3CC(C2)CC1C3 (stereo not drawn) [compound 25] | Random Coil | Yes | 2/2 | 
27 | CC1CC(NCCCS(=O)(=O)O)CC(C)(C)C1 (stereo not drawn) [compound 34] | Random Coil β-sheet | Yes | ½ | 
28 | CCCC(CO)NCCC(C)S(=O)(=O)O (stereo not drawn) [compound 27] | β-sheet/β- turn | No | 0/2 | 
29 | CCCCCCNCCCS(=O)(=O)O [compound 20] | β-turn | No | 0/2 | 
30 | O=S(=O)([O-])CC(O)C[N+]12CCC(CC1)CC2 (stereo not drawn) [compound 31] | β-sheet/β- turn α-helix | No | ⅓ | 
